Several values for one entry are separate records, joined by “and”; a condition that tells them apart may be missing. Equal entries are not always repeated.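 Exposure lasted 48 hours, with cells grown in 96-well plates and compounds tested at five concentrations. GI50 marks 50% less growth. TGI marks complete inhibition of growth.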
Assays:
Test in all cases: NCI anticancer screen, dose series, 48 h
SK-MEL-28 melanoma = system: SK-MEL-28 melanoma
OVCAR-8 ovarian = system: OVCAR-8 ovarian
NCI-H23 lung = system: NCI-H23 lung
NCI-H460 lung = system: NCI-H460 lung
A549 NSCLC = system: A549 NSCLC
UACC-257 melanoma = system: UACC-257 melanoma
SR leukemia = system: SR leukemia
HCC-2998 colon = system: HCC-2998 colon
CAKI-1 renal = system: CAKI-1 renal
NCI-H226 lung = system: NCI-H226 lung

SMILES | TGI (SK-MEL-28 melanoma) [µM] | TGI (OVCAR-8 ovarian) [µM] | TGI (NCI-H23 lung) [µM] | TGI (NCI-H460 lung) | TGI (A549 NSCLC) | TGI (UACC-257 melanoma) [µM] | GI50 (SK-MEL-28 melanoma) [µM] | GI50 (OVCAR-8 ovarian) [µM] | GI50 (NCI-H23 lung) [µM] | GI50 (NCI-H460 lung) [µM] | GI50 (A549 NSCLC) [µM] | GI50 (SR leukemia) [µM] | TGI (SR leukemia) [µM] | GI50 (HCC-2998 colon) [µM] | TGI (HCC-2998 colon) [µM] | GI50 (CAKI-1 renal) [µM] | TGI (CAKI-1 renal) [µM] | GI50 (UACC-257 melanoma) [µM] | TGI (NCI-H226 lung) [µM] | GI50 (NCI-H226 lung) [µM]
CN(C)CC(C)(C)C(/C=C/c1ccccc1)=N\Nc1ccccc1 | 10.8 | 27.5 | 23.5 | 17.8 µM | 4.19 µM | 23.4 | – | – | – | – | – | – | – | – | – | – | – | – | – | –
c1ccc2c(-c3nc4ccccc4[nH]3)cccc2c1 | > 100 | 33.3 | > 100 | 15.8 µM | > 100 µM | 84.4 | 4.64 | 4.09 | 4.2 | 3.17 | 4.36 | 1.42 | 21.4 | 6.96 | > 100 | 3.18 | > 100 | 3.87 | – | –
Cc1cc(NS(=O)(=O)c2ccc(NC(=O)c3cccc4cc5ccccc5nc34)cc2)no1 | 33.1 | 45.8 | 39.3 | 72.2 µM | 56.2 µM | 87.6 | – | – | – | – | – | – | – | – | – | – | 46.7 | – | – | –
O=C1SC(c2ccccc2)(c2ccccc2)c2ccccc21 | > 100 | > 100 | > 100 | > 100 µM | > 100 µM | > 100 | – | – | – | – | – | – | – | – | > 100 | – | > 100 | – | > 100 | –
CCCC(=O)Nc1cc([N+](=O)[O-])c([N+](=O)[O-])cc1OC | 32.2 | 34.2 | 34.4 | 35.4 µM | 29.8 µM | 35.4 | – | – | – | – | – | – | 21.5 | – | – | – | 29.5 | – | 51.2 | –
Nc1ccc(C(=O)NN2C(=O)C(Cl)C2c2ccc([N+](=O)[O-])cc2)cc1 (stereo unspecified) | 20.1 | 56 | 35.6 | 22.1 µM | 25.8 µM | 31.2 | – | – | – | – | – | – | – | – | 21.2 | – | 36.1 | – | 34.9 | –
COCOCc1cc(OCc2ccccc2)c(OC)cc1Br | > 100 | > 100 | > 100 | > 100 µM | > 100 µM | > 100 | – | – | – | – | – | – | > 100 | – | – | – | > 100 | – | – | –
C/C1=C\CC[C@@]2(C)O[C@@H]2C[C@@H]2[C@H](C/C(C)=C/CC1)OC(=O)C21CCN=N1 (stereo partly specified) | > 100 | > 100 | > 100 | 75 µM and > 100 µM | 75 µM and > 100 µM | > 100 | > 100 | > 100 | > 100 | > 100 | > 100 | – | – | – | > 75 | > 100 | > 100 | > 100 | > 100 | –
CCCCCCCCCCCCSC(=NC)NC | 3.22 | > 100 | 4.71 | 3.52 µM | 4.76 µM | 5.14 | 1.72 | 2.88 | 2.2 | 1.84 | 2.12 | 1.37 | 5.32 | 1.6 | 3.03 | 1.92 | 4.8 | 2.15 | – | –
Oc1ccc2ccccc2c1C(c1ccc(Cl)cc1)c1c(O)ccc2ccccc12 | 15.9 | 19.9 | 19.1 | 11.3 µM | 10.8 µM | 15.9 | – | – | – | – | – | – | > 25.7 | – | 6.34 | – | 9.08 | – | – | –
CC(=O)OC1(C#N)CC2OC1C1C2N1C(=O)OC(C)(C)C (stereo unspecified) | > 100 | > 100 | > 100 | > 100 µM | > 100 µM | – | – | – | – | – | – | – | – | – | > 100 | – | > 100 | – | > 100 | –
Cc1ccc(-c2nc3c(C(=O)NCCN(C)C)cccc3[nH]2)cc1 | 32.4 | 78.3 | 30.3 | 21.1 µM | 34.5 µM | 27.5 | – | – | – | – | – | – | – | – | 29.4 | – | > 100 | – | 31.7 | –
S=P1(c2ccccc2)Nc2ccc(Cl)cc2N1 (stereo unspecified) | > 100 | – | > 100 | > 100 µM | > 100 µM | > 100 | – | – | – | – | – | – | – | – | > 100 | – | > 100 | – | > 100 | –
COc1cc(C(=O)/C=C/c2c(-c3ccc(F)cc3)nc3ncccn23)cc(OC)c1OC | > 100 | > 100 | 5.79 | – | > 100 µM | > 100 | 3.68 | 2.69 | 1.58 | – | 3.34 | 2.28 | > 100 | 1.77 | 3.42 | – | – | 3.73 | 18.9 | 3.08
COc1cc2c3c(n(CCCCNC(=O)OCC4c5ccccc5-c5ccccc54)c(=O)c2cc1OC)-c1cc2c(cc1C3=O)OCO2 | > 100 | > 100 | > 100 | 54.2 µM | > 100 µM | > 100 | > 100 | 35 | 26.4 | 2.56 | 17.4 | – | – | 14.9 | > 100 | 5.3 | > 100 | > 100 | > 100 | 31.1
COc1ccc2c(c1)C(=O)/C(=C/c1ccc([N+](=O)[O-])s1)O2 | 0.689 | > 100 | 3.53 | 1.64 µM | 4.07 µM | 3.11 | 0.248 | 0.362 | 0.709 | 0.411 | 1.06 | – | – | 0.514 | 2.05 | 2.19 | > 100 | 0.819 | 4.81 | 1.91
Cc1ccc(/C=C/C(=O)c2ccc(N)cc2)c(C)c1 | 30.3 | – | 5.21 | 33.8 µM | 37.5 µM | 28.3 | 16.6 | – | 2.19 | 14.7 | 17.6 | – | – | 15.6 | 30.6 | 1.72 | 3.18 | 14.3 | 7.25 | 2.8
Cc1ccc(S(=O)(=O)N/N=C/c2oc(-c3ccccc3Cl)c(-c3ccccc3Cl)c2[N+](=O)[O-])cc1 | 62.9 | > 100 | 29.3 | 29.9 µM | > 100 µM | > 100 | – | – | – | – | – | – | 64.6 | – | 47.9 | – | > 100 | – | – | –

Reference: PubChem BioAssay (NCI)
